The results in this text go back to PubChem BioAssay (NCI).

Where “and” joins values, the source holds several entries; their conditions need not be identical. Equal entries are not always repeated.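 Step 1: Grow cells in 96-well plates. Step 2: Expose to compound for 48 hours at 5 concentrations. Step 3: Interpolate endpoints linearly; if unreached, use highest concentration. At the GI50, growth is halved. TGI: concentration producing complete growth inhibition.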

Among the test systems are T-47D breast; SNB-75 CNS; SN12C renal; OVCAR-4 ovarian; SF-268 CNS; TK-10 renal; NCI-H226 lung; HCT-116 colon; MCF7 breast; DU-145 prostate.
Common to all, as to assay: NCI anticancer screen, dose series, 48 h

For the molecule `CC1=C(SCCC(=O)OC(C[Se]C2=C(C)C(=O)c3ccccc3C2=O)C(=O)NCCCCCC(=O)OCc2ccccc2)C(=O)c2ccccc2C1=O` (stereo not drawn), the GI50 was 17.7 µM with T-47D breast; 11.5 µM in the experiment on SNB-75 CNS; 4.63 µM in the experiment on SN12C renal; 12.3 µM with OVCAR-4 ovarian; 7.33 µM in the experiment on SF-268 CNS; 13.8 µM with TK-10 renal. Further, the GI50 in the experiment on NCI-H226 lung is 19.5 µM; with HCT-116 colon, 1.99 µM; in the experiment with MCF7 breast, 4.75 µM. For the same molecule, the TGI worked out at 51.8 µM in the experiment on T-47D breast; 23.8 µM with SNB-75 CNS; 16.7 µM in the experiment on SN12C renal; 25.1 µM in the experiment with OVCAR-4 ovarian; 19.9 µM in the experiment on SF-268 CNS; 27.2 µM with TK-10 renal. The TGI in the experiment on NCI-H226 lung is 51.3 µM; in the experiment on HCT-116 colon, 4.6 µM; in the experiment with MCF7 breast it was 29.6 µM.
In the case of `CCCCCCCCCCCCCCCCCCn1cc[n+](C)c1`, the GI50 with T-47D breast was 0.403 µM and 0.433 µM; in the experiment with SN12C renal, 1.07 µM and 0.826 µM; with DU-145 prostate, 0.801 µM and 0.87 µM; in the experiment on OVCAR-4 ovarian it was 0.645 µM and 0.518 µM; in the experiment on TK-10 renal it was 0.47 µM and 0.26 µM; in the experiment with MCF7 breast, 0.513 µM and 1 µM. In addition, the TGI with T-47D breast is 2.96 µM and 3.31 µM; with SN12C renal, 2.47 µM and 2.3 µM; in the experiment on DU-145 prostate, 2.06 µM and 2.1 µM; in the experiment on TK-10 renal, 1.97 µM and 1.44 µM; in the experiment on MCF7 breast, 1.79 µM and 2.35 µM.
As to `Cc1ccccc1NC(=O)c1sc2nc(C)c(C(=O)/C=C/c3ccccc3)cc2c1N`, the GI50 in the experiment on T-47D breast was 0.975 µM; with SN12C renal it was 1.07 µM; in the experiment on DU-145 prostate it was 1.34 µM; with OVCAR-4 ovarian it was 1.42 µM; in the experiment on SF-268 CNS, 1.2 µM; in the experiment with TK-10 renal, 1.55 µM. The GI50 in the experiment with NCI-H226 lung was 1.07 µM; in the experiment on HCT-116 colon, 0.896 µM; in the experiment on MCF7 breast, 1.5 µM. The TGI with T-47D breast is 2.34 µM; in the experiment with SN12C renal, 2.5 µM; in the experiment with DU-145 prostate, 4.28 µM; with OVCAR-4 ovarian it was above 50 µM; in the experiment with SF-268 CNS, 3.58 µM; in the experiment with TK-10 renal it was 6.04 µM. For the same molecule, the TGI in the experiment on NCI-H226 lung stood at 2.35 µM; in the experiment on HCT-116 colon, 1.96 µM; in the experiment with MCF7 breast it was 8.69 µM.
For `NCCCC[C@@H]1NC(=O)[C@H](CC(=O)O)NC(=O)CNC(=O)[C@H](CCCN=C(N)N)NC(=O)[C@@H](N)CSSC[C@@H](C(=O)O)NC(=O)[C@H](CC(=O)O)NC(=O)[C@@H]2CCCN2C(=O)CNC1=O`, the GI50 in the experiment with T-47D breast, in the experiment with SN12C renal, in the experiment with DU-145 prostate, with OVCAR-4 ovarian, in the experiment on SF-268 CNS and in the experiment with TK-10 renal was above 100 µM throughout. Further, the GI50 with NCI-H226 lung, with HCT-116 colon and in the experiment on MCF7 breast was above 100 µM each time. The TGI with T-47D breast, in the experiment on SN12C renal, in the experiment on DU-145 prostate, in the experiment with OVCAR-4 ovarian, with SF-268 CNS and with TK-10 renal was above 100 µM each time. Further, the TGI with NCI-H226 lung, in the experiment with HCT-116 colon and in the experiment on MCF7 breast was above 100 µM throughout.
With `CCOC(=O)Oc1cc2c(c(OC)c1OC)-c1ccc(OC)c(=O)cc1C(NC(C)=O)CC2` (stereo not drawn), the TGI with T-47D breast is above 100 µM; in the experiment with SNB-75 CNS it was above 16.9 µM; in the experiment with SN12C renal, above 100 µM; in the experiment with OVCAR-4 ovarian, above 100 µM; in the experiment on SF-268 CNS it was 73.5 µM; with TK-10 renal it was above 100 µM. Also, the TGI was 0.787 µM in the experiment with NCI-H226 lung, 1.85 µM in the experiment with HCT-116 colon and above 100 µM in the experiment with MCF7 breast.
As for `COc1ccc(-c2nc(-c3ccc(C)cc3)cn3ccnc23)cc1`, the GI50 with T-47D breast is above 50 µM; in the experiment with SN12C renal, 6.12 µM; in the experiment with DU-145 prostate it was 6.11 µM; in the experiment with SF-268 CNS, 3.06 µM; with TK-10 renal it was 20.6 µM; with HCT-116 colon it was 2.61 µM. For the same molecule, in the experiment with MCF7 breast, the GI50 was 3.05 µM. Further, the TGI in the experiment with T-47D breast, with SN12C renal, in the experiment with DU-145 prostate, in the experiment with SF-268 CNS, in the experiment with TK-10 renal and with HCT-116 colon was above 50 µM each time. The TGI in the experiment on MCF7 breast is above 50 µM.
For the molecule `O=C1CC(c2cccc(F)c2)Nc2cc3c(cc21)OCO3` (stereo not drawn), the TGI in the experiment with T-47D breast, in the experiment on SN12C renal, in the experiment on DU-145 prostate, in the experiment on OVCAR-4 ovarian, in the experiment with SF-268 CNS and in the experiment with TK-10 renal was above 100 µM in each case. For the same molecule, the TGI in the experiment with HCT-116 colon and with MCF7 breast was above 100 µM throughout. In addition, the GI50 in the experiment on SN12C renal was 0.207 µM; in the experiment with DU-145 prostate, below 0.01 µM; in the experiment on OVCAR-4 ovarian, above 100 µM; in the experiment on SF-268 CNS it was 1.53 µM; with TK-10 renal, above 100 µM; with NCI-H226 lung, below 0.01 µM. The GI50 in the experiment with HCT-116 colon and with MCF7 breast was below 0.01 µM each time.
As to `COC(=O)C1=C(O)[C@H](C(=O)OC)C2(O)C(C(=O)OC)[C@H](c3ccc(OC(=O)C(C)c4ccc(CC(C)C)cc4)cc3)C[C@@H]1[C@@H]2C(=O)OC` (stereo partly drawn), the GI50 in the experiment on T-47D breast was 12.3 µM; in the experiment on SN12C renal it was 9.58 µM; in the experiment on DU-145 prostate, 0.804 µM; in the experiment with OVCAR-4 ovarian, 11.7 µM; in the experiment on SF-268 CNS, above 50 µM; in the experiment on TK-10 renal, 30.6 µM. In addition, the figures for the GI50 in the experiment with HCT-116 colon and with MCF7 breast were above 50 µM and 8.18 µM, respectively. The TGI in the experiment with T-47D breast was above 50 µM; in the experiment on SN12C renal, 22.9 µM; in the experiment on DU-145 prostate it was 9.58 µM; with OVCAR-4 ovarian it was above 50 µM; in the experiment on SF-268 CNS, above 50 µM; with TK-10 renal, above 50 µM. The TGI in the experiment on HCT-116 colon and in the experiment with MCF7 breast was above 50 µM throughout.
As for `COc1ccc(C/C(=C(\C)c2ccc(OCCN3CCCC3)cc2)c2ccc(OCCN3CCCC3)cc2)cc1`, the GI50 with T-47D breast was 1.69 µM; in the experiment on SNB-75 CNS it was 1.59 µM; with SN12C renal, 1.67 µM; in the experiment on DU-145 prostate it was 1.86 µM; with OVCAR-4 ovarian, 2.08 µM; with SF-268 CNS it was 1.97 µM. The GI50 is 1.55 µM with TK-10 renal, 2.54 µM in the experiment on NCI-H226 lung and 1.6 µM in the experiment with MCF7 breast. For the same molecule, the TGI came out at 3.37 µM in the experiment on T-47D breast; 3.22 µM with SNB-75 CNS; 3.2 µM in the experiment on SN12C renal; 3.75 µM in the experiment with DU-145 prostate; 5.1 µM with OVCAR-4 ovarian; 4.19 µM in the experiment with SF-268 CNS. The TGI in the experiment with TK-10 renal was 3.02 µM; in the experiment with NCI-H226 lung, 7.64 µM; in the experiment on MCF7 breast it was 3.1 µM.
